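Protocol summary: plate cells (96-well), add compound at 5 concentrations, incubate 48 h, interpolate endpoints linearly. GI50 is the concentration that inhibits growth by half.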 The source made the active and inactive calls. Rule as the data show it: active = GI50 up to about 1.1 µM and inactive = higher.
Key:
Assay in all cases: NCI-60 cell line screen, 48 h
[1] = system: 786-0
[2] = system: A498
[3] = system: A549
[4] = system: ACHN
[5] = system: BT-549
[6] = system: CAKI-1
[7] = system: CCRF-CEM
[8] = system: COLO 205
[9] = system: DU-145
[10] = system: EKVX
[11] = system: HCC 2998
[12] = system: HCT-116
[13] = system: HCT-15
[14] = system: HL-60
[15] = system: HOP-62
[16] = system: HOP-92
[17] = system: HT-29
[18] = system: Hs-578T
[19] = system: IGROV-1
[20] = system: K562
[21] = system: KM12
[22] = system: LOX IMVI
[23] = system: M14
[24] = system: MCF7
[25] = system: MDA-MB-231
[26] = system: MDA-MB-435
[27] = system: MDA-N
[28] = system: MOLT-4
[29] = system: NCI-H226
[30] = system: NCI-H23
[31] = system: NCI-H460
[32] = system: NCI-H522
[33] = system: NCI/ADR-RES
[34] = system: OVCAR-3
[35] = system: OVCAR-4
[36] = system: OVCAR-5
[37] = system: OVCAR-8
[38] = system: PC-3
[39] = system: RPMI-8226
[40] = system: RXF 393
[41] = system: SF-268
[42] = system: SF-295
[43] = system: SF-539
[44] = system: SK-MEL-28
[45] = system: SK-MEL-2
[46] = system: SK-MEL-5
[47] = system: SK-OV-3
[48] = system: SN12C
[49] = system: SNB-19
[50] = system: SNB-75
[51] = system: SR
[52] = system: SW-620
[53] = system: T47D
[54] = system: TK-10
[55] = system: U-251
[56] = system: UACC-257
[57] = system: UACC-62
[58] = system: UO-31

## CC(=O)OC1[C@@H](OC(C)=O)CN(OCc2ccccc2)C[C@H]1OC(C)=O (stereo partly drawn)
[1]
  GI50: > 100 µM (inactive)
[2]
  GI50: > 100 µM (inactive)
[3]
  GI50: > 100 µM (inactive)
[4]
  GI50: > 100 µM (inactive)
[5]
  GI50: > 100 µM (inactive)
[6]
  GI50: > 100 µM (inactive)
[7]
  GI50: > 100 µM (inactive)
[8]
  GI50: > 100 µM (inactive)
[9]
  GI50: > 100 µM (inactive)
[10]
  GI50: > 100 µM (inactive)
[11]
  GI50: > 100 µM (inactive)
[12]
  GI50: > 100 µM (inactive)
[13]
  GI50: > 100 µM
[14]
  GI50: > 100 µM (inactive)
[15]
  GI50: > 100 µM (inactive)
[16]
  GI50: > 100 µM (inactive)
[17]
  GI50: > 100 µM (inactive)
[18]
  GI50: > 100 µM (inactive)
[19]
  GI50: > 100 µM (inactive)
[20]
  GI50: > 100 µM (inactive)
[21]
  GI50: > 100 µM (inactive)
[22]
  GI50: > 100 µM (inactive)
[23]
  GI50: > 100 µM (inactive)
[24]
  GI50: > 100 µM (inactive)
[25]
  GI50: > 100 µM (inactive)
[26]
  GI50: > 100 µM (inactive)
[27]
  GI50: > 100 µM (inactive)
[28]
  GI50: > 100 µM (inactive)
[29]
  GI50: > 100 µM (inactive)
[30]
  GI50: > 100 µM (inactive)
[31]
  GI50: > 100 µM (inactive)
[32]
  GI50: > 100 µM (inactive)
[33]
  GI50: > 100 µM (inactive)
[34]
  GI50: > 100 µM (inactive)
[35]
  GI50: > 100 µM (inactive)
[36]
  GI50: > 100 µM (inactive)
[37]
  GI50: > 100 µM (inactive)
[38]
  GI50: > 100 µM (inactive)
[39]
  GI50: > 100 µM (inactive)
[40]
  GI50: > 100 µM (inactive)
[41]
  GI50: > 100 µM (inactive)
[42]
  GI50: > 100 µM (inactive)
[43]
  GI50: > 100 µM (inactive)
[44]
  GI50: > 100 µM (inactive)
[45]
  GI50: > 100 µM (inactive)
[46]
  GI50: > 100 µM (inactive)
[47]
  GI50: 33 µM (inactive)
[48]
  GI50: > 100 µM (inactive)
[49]
  GI50: > 100 µM (inactive)
[50]
  GI50: > 100 µM (inactive)
[51]
  GI50: > 100 µM (inactive)
[52]
  GI50: > 100 µM (inactive)
[53]
  GI50: > 100 µM (inactive)
[54]
  GI50: > 100 µM (inactive)
[55]
  GI50: > 100 µM (inactive)
[56]
  GI50: > 100 µM (inactive)
[57]
  GI50: > 100 µM (inactive)
[58]
  GI50: > 100 µM (inactive)
